Where a name gives a salt, the structure may show the parent alone.

Drawing on patent publication US5028614A, “Hydroxymethyl-indolizidines and quinolizidines and their use as α-glucosidase I inhibitors” (Merrell Dow Pharmaceuticals Inc., priority 1990, dated 1991), this text covers IC50 for 3 compounds.

The experiment has as its target α-glucosidase I. As to the kind of experiment: Microtiter plate assay for α-glucosidase I activity. Format: biochemical. The following applies: [3H]G3M9N substrate, purified α-glucosidase I, pH 6.8, 37° C., one hour. As for the experimental part: The [^3 H] glucose labeled oligosaccharides substrate (G3 M9 N) for glucosidase I was prepared by metabolically labeling exponentially growing BHK cells with [^3 H]galactose in the presence of 200μg/ml of castanospermine. BHK cells grown as monolayer were treated with 200μg/ml of castanospermine in DMEM (#430-1600) supplemented with 10% heat inactivated fetal calf serum, 2 mM L-glutamine and 1X of PSN antibiotic mixture. After three hour incubation with castanospermine, [1-^3 H] galactose (10μci/ml of media) was added to label the glycoproteins and cells were allowed to grow to confluency for an additional 48 hours. At the end of labeling period, the cells were washed with cold PBS and scraped with a rubber policeman. Cell pellet was heated for 10 minutes at 100° C. and exhaustively treated with pronase (usually 72 hrs) in 50 mM Tris pH 7.5 containing 10 mM CaCl2 and 1% Pronase under toluene atmosphere to obtain glycopeptides. The glycopeptides were separated on columns of Bio-gel P-4. The glycopeptides peak produced by castanospermine treatment was pooled, treated with Endo-H to release the oligosaccharides. The oligosaccharides obtained by endo-H hydrolysis were bound to a ConA column previously washed with buffer A (50 mM Tris pH 7.5 containing 500 mM NaCl) and equilibrated with buffer B (5 mM Sodium acetate buffer pH 5.5 containing 2 mM of each CaCl2, MgCl2 and MnCl2). The oligosaccharides were then eluted with buffer B containing 100 mM α-methylmannoside. The oligosaccharides eluted from ConA column were further purified and characterized on a calibrated Biogel P-4 column (1.5×200 cm, (-) 400 mesh). The purified oligosaccharides having GLc3 Man9 GlcNAc structure were used as substrate in these studies. […]
ConA-sepharose was washed first with buffer A, then with buffer B as described above, and resuspended in buffer B (gel: buffer, 1:1) before use. […] A 150 μl aliquot of supernatant was removed and counted.
The IC50 is the midpoint of a concentration-inhibition curve. With `OC[C@@H]1[C@@H](O)[C@H](O)[C@@H](O)[C@H]2[C@@H](O)CCCN21` [Compound XXI, [1S-(1α,2β,3α,4β,9α,9aβ)]-octahydro-4-(hydroxy-methyl) -2H-quinolizine-1,2,3,9-tetrol hydrochloride], half-maximal inhibition (IC50) required 150 nM. `OC[C@@H]1[C@@H](O)[C@H](O)[C@@H](O)[C@H]2CCCN21` [Compound VII] came in with an IC50 of 300 nM.

Take `O=C(O[C@H]1CCCN2[C@H]1[C@H](O)[C@@H](O)[C@H](O)[C@H]2CO)c1ccccc1` [XVII, [1S-(1α,2β,3α,4β,9α,9aβ) ]-octahydro-4-(hydroxymethyl)-2H-quinolizine-1,2,3,9-tetrol 9-benzoate]: inhibition was half-maximal at 29000 nM (IC50).
